In ChEMBL document CHEMBL6078644, “Azobenzene-Tagged Photopeptides Exhibiting Excellent Selectivity and Light-Induced Cytotoxicity in MCF-7 Cells over HeLa and A549” (J Med Chem, 2024):
Active and inactive are the calls of the source. The calls are words filed in the database; no cut-off is given here.

Experiments:
[1] = target: Proteasome Macropain subunit (Homo sapiens) (UniProt P49721); assay: Inhibition of human 20S proteosome beta2 subunit using Bz-VGR-AMC as substrate preincubated for 30 mins with compound prepared under dark condition followed by substrate addition and measured after 12 hrs by fluorescence plate reader analysis; conditions: time 12.5 hrs
Proteasome Macropain subunit (Homo sapiens), sequence (P49721 whole entry): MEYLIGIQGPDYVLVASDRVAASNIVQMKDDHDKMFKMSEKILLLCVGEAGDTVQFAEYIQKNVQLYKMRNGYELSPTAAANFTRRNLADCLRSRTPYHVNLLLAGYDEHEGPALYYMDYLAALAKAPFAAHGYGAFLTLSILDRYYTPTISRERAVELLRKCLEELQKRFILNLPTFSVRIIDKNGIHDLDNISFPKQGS

[2] = tested on: A549; assay: Cytotoxicity against human A549 cells assessed as reduction in cell viability incubated for 48 hrs with compound prepared under dark condition by CellTIter blue reagent based fluorescence plate reader analysis; assay type: functional; conditions: A549, 48 h
[3] = tested on: MCF7; assay: Cytotoxicity against human MCF7 cells assessed as reduction in cell viability incubated for 48 hrs with compound prepared under dark condition by CellTIter blue reagent based fluorescence plate reader analysis; assay type: functional; conditions: MCF7, 48 h
[4] = target: T1, Proteasome component C5 (Homo sapiens) (UniProt P20618); assay: Inhibition of human 20S proteosome beta1 subunit using […] as substrate preincubated for 30 mins with compound prepared under dark condition followed by substrate addition and measured after 12 hrs by fluorescence plate reader analysis; conditions: time 12.5 hrs
T1 sequence (whole entry): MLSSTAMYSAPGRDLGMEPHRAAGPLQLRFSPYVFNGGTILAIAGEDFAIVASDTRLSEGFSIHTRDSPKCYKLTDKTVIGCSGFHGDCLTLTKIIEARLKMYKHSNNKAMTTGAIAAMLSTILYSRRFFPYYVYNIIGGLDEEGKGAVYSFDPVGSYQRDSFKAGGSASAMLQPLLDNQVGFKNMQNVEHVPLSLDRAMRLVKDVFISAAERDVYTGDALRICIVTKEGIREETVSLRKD

[5] = tested on: HeLa; assay: Cytotoxicity against human HeLa cells assessed as reduction in cell viability incubated for 48 hrs with compound prepared under dark condition by CellTIter blue reagent based fluorescence plate reader analysis
[6] = Potency index, ratio of E-enrichment isomer IC50 to test compound (Z-enrichment isomer) IC50 for cytotoxicity against human A549 cells assessed as reduction in c ell viability incubated for 48 hrs by CellTiter blue reagent based fluorescence plate reader analysis; assay type: functional
[7] = tested on: HeLa; assay: Cytotoxicity against human HeLa cells assessed as reduction in cell viability incubated for 48 hrs with compound prepared under 365 nm UV light condition for 1 hrs by CellTIter blue reagent based fluorescence plate reader analysis
[8] = Potency index, ratio of E-enrichment isomer IC50 to test compound (Z-enrichment isomer) IC50 for cytotoxicity against human HeLa cells assessed as reduction in c ell viability incubated for 48 hrs by CellTiter blue reagent based fluorescence plate reader analysis; assay type: functional
[9] = Potency index, ratio of E-enrichment isomer IC50 to test compound (Z-enrichment isomer) IC50 for cytotoxicity against human MCF7 cells assessed as reduction in c ell viability incubated for 48 hrs by CellTiter blue reagent based fluorescence plate reader analysis; assay type: functional
[10] = tested on: A549; assay: Cytotoxicity against human A549 cells assessed as reduction in cell viability incubated for 48 hrs with compound prepared under 365 nm UV light condition for 1 hrs by CellTIter blue reagent based fluorescence plate reader analysis
[11] = tested on: MCF7; assay: Cytotoxicity against human MCF7 cells assessed as reduction in cell viability incubated for 48 hrs with compound prepared under 365 nm UV light condition for 1 hrs by CellTIter blue reagent based fluorescence plate reader analysis
[12] = target: T1, Proteasome component C5 (Homo sapiens); assay: Inhibition of human 20S proteosome beta1 subunit using […] as substrate preincubated for 30 mins with compound prepared under 365 nm UV light condition for 1 hrs followed by substrate addition and measured after 12 hrs by fluorescence plate reader analysis; conditions: time 12.5 hrs
[13] = Half-life of compound under dark condition measured for 150 hrs at 6 hrs interval by UV-spectroscopy; assay type: physicochemical
[14] = target: Proteasome Macropain subunit (Homo sapiens) (UniProt P49721); assay: Inhibition of human 20S proteosome beta2 subunit using Bz-VGR-AMC as substrate preincubated for 30 mins with compound prepared under 365 nm UV light condition for 1 hrs followed by substrate addition and measured after 12 hrs by fluorescence plate reader analysis; conditions: time 12.5 hrs
[15] = Retention time of compound by HPLC analysis; assay type: physicochemical

inhibition [1] | inhibition [4] | inhibition [12] | half-life [13] | inhibition [14] | Structure (SMILES) | IC50 [2] | IC50 [3] | IC50 [5] | IC50 [7] | IC50 [10] | IC50 [11] | other results
– | – | inactive | > 100 h | inactive | Cc1cc(C)cc(N=Nc2cccc(C(=O)N[C@@H](Cc3ccccc3)C(=O)N[C@@H](CC(C)C)C(=O)N[C@H](C=CS(C)(=O)=O)CC(C)C)c2)c1 | – | – | – | 0.32 µM | 1.9 µM | 7.51 µM | –
– | – | inactive | > 100 h | inactive | Cc1cc(C)cc(/N=N\c2cccc(C(=O)N[C@H](C(=O)N[C@@H](Cc3ccccc3)C(=O)N[C@H](/C=C/S(C)(=O)=O)CC(C)C)C(C)C)c2)c1 | – | – | – | 2.9 µM | 6.95 µM | 2.25 µM | –
inactive | inactive | – | – | – | Cc1cc(C)cc(/N=N/c2cccc(C(=O)N[C@@H](Cc3ccccc3)C(=O)N[C@@H](CC(C)C)C(=O)N[C@H](/C=C/S(C)(=O)=O)CC(C)C)c2)c1 | 2.59 µM | 35.8 µM | 1.23 µM | – | – | – | –
inactive | inactive | – | – | – | Cc1cc(C)cc(/N=N/c2cccc(C(=O)N[C@H](C(=O)N[C@@H](Cc3ccccc3)C(=O)N[C@H](/C=C/S(C)(=O)=O)CC(C)C)C(C)C)c2)c1 | 45.9 µM | 48.5 µM | 9.6 µM | – | – | – | –

More lines, now with the values behind:

Structure (SMILES) | inhibition [1] | inhibition [4] | inhibition [12] | half-life [13] | inhibition [14] | IC50 [2] | IC50 [3] | IC50 [5] | IC50 [7] | IC50 [10] | IC50 [11] | other results
Cc1cc(C)cc(/N=N/c2cccc(C(=O)N[C@@H](Cc3c[nH]c4ccccc34)C(=O)N[C@@H](CC(C)C)C(=O)N[C@H](/C=C/S(C)(=O)=O)CC(C)C)c2)c1 | inactive | inactive | – | – | – | 1.98 µM | 10.6 µM | 0.285 µM | – | – | – | –
CC(C)C[C@H](NC(=O)[C@H](Cc1ccc(/N=N\c2ccccc2)cc1)NC(=O)OC(C)(C)C)B1OC2C[C@@H]3C[C@@H](C3(C)C)[C@@]2(C)O1 (some centres not stated) | – | – | – | – | – | – | – | – | 38.1 µM | 66.4 µM | 27.9 µM | Ratio IC50 [6]: 0.79; Ratio IC50 [8]: 1; Ratio IC50 [9]: 1.4
Cc1cc(C)cc(/N=N\c2cccc(C(=O)N[C@@H](Cc3c[nH]c4ccccc34)C(=O)N[C@@H](CC(C)C)C(=O)N[C@H](/C=C/S(C)(=O)=O)CC(C)C)c2)c1 | – | – | inactive | > 100 h | inactive | – | – | – | 0.25 µM | 0.42 µM | 5.44 µM | –
Cc1cc(C)cc(/N=N/c2cccc(C(=O)N[C@@H](CC(C)C)C(=O)N[C@@H](CC(C)C)C(=O)N[C@H](/C=C/S(C)(=O)=O)CC(C)C)c2)c1 | inactive | inactive | – | – | – | 2.56 µM | 8.36 µM | 0.42 µM | – | – | – | Retention_time [15]: 11.1 min
Cc1cc(C)cc(/N=N\c2cccc(C(=O)N[C@@H](CC(C)C)C(=O)N[C@@H](CC(C)C)C(=O)N[C@H](/C=C/S(C)(=O)=O)CC(C)C)c2)c1 | – | – | inactive | > 100 h | inactive | – | – | – | 0.28 µM | 0.73 µM | 4.39 µM | Retention_time [15]: 13.5 min
CC(C)C[C@H](NC(=O)[C@H](Cc1ccc(/N=N/c2ccccc2)cc1)NC(=O)OC(C)(C)C)B1OC2C[C@@H]3C[C@@H](C3(C)C)[C@@]2(C)O1 (some centres not stated) | – | – | – | – | – | 52.5 µM | 40.1 µM | 38.2 µM | – | – | – | –
CC(C)CC(NC(=O)[C@H](Cc1ccccc1)NC(=O)c1ccc(/N=N\c2ccccc2)cc1)B(O)O (some centres not stated) | – | – | – | – | – | – | – | – | – | 17.3 µM | 6.7 µM | –
